Source: PubChem BioAssay (NCI)
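These data come from cells grown in 96-well plates and exposed to compound for 48 hours at five concentrations. TGI: concentration producing complete growth inhibition.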

Assays:
Experiment in all cases: NCI tumour cell line growth inhibition, 48 h
DMS 273 small cell lung = test system: DMS 273 small cell lung
HOP-18 NSCLC = test system: HOP-18 NSCLC
LXFL 529 NSCLC = test system: LXFL 529 NSCLC
M19-MEL melanoma = test system: M19-MEL melanoma
SNB-78 CNS = test system: SNB-78 CNS
DLD-1 colon = test system: DLD-1 colon
P388 leukemia = test system: P388 leukemia
P388/ADR leukemia = test system: P388/ADR leukemia
SN12K1 renal = test system: SN12K1 renal
XF 498 CNS = test system: XF 498 CNS
RXF-631 renal = test system: RXF-631 renal

| Compound | TGI (DMS 273 small cell lung) [µM] | TGI (HOP-18 NSCLC) [µM] | TGI (LXFL 529 NSCLC) [µM] | TGI (M19-MEL melanoma) [µM] | TGI (SNB-78 CNS) [µM] | TGI (DLD-1 colon) [µM] | TGI (P388 leukemia) [µM] | TGI (P388/ADR leukemia) [µM] | TGI (SN12K1 renal) [µM] | TGI (XF 498 CNS) [µM] | TGI (RXF-631 renal) [µM] |
| --- | --- | --- | --- | --- | --- | --- | --- | --- | --- | --- | --- |
| CC(=O)OCc1c(O)c2c(c(O)c1COC(C)=O)C(=O)C=CC2=O | 34.3 | 35.8 | 10.4 | 3.54 | 28 |  |  |  |  |  |  |
| CCOC(=O)/C(O)=C1\C(=O)N(C)C(=O)C1c1cccc(OC)c1 (configuration not stated) | > 100 | > 100 |  | > 100 | > 100 | > 100 | > 100 | > 100 | > 100 | > 100 |  |
| CN(C)CCNC(=O)c1cccc2nc(-c3ccccc3)oc12 |  | > 100 |  | 99.5 | > 100 | > 100 | 20.3 | > 64.3 | > 75.5 | > 91.9 |  |
| CCCSc1nc(-c2ccc(OC)cc2)c(C#N)c(=O)n1C1OC(COC(C)=O)C(OC(C)=O)C(OC(C)=O)C1OC(C)=O (configuration not stated) |  |  | > 100 | > 100 | > 100 |  |  |  |  |  |  |
| C=C(CN(C)C)C(=O)c1ccccc1[N+](=O)[O-] | 33.7 | 32.7 | 30.3 | 32 | 71.4 | 29.5 |  |  |  | 31.2 | 34.4 |
| CN(C)CC1CCC(CN(C)C)C1=O (configuration not stated) | 36.7 | 33.2 | 2.96 | 7.96 | 17.2 |  |  |  |  | 10.3 |  |
| CN(C)CCC(=O)/C=C\c1ccccc1 | 33.7 | 43.5 | 26.9 | 37.4 | 37.6 | 31.8 |  |  |  | 28.4 | 60.4 |
